From PubChem BioAssay AID2060496 (Molecular Pharmacology Branch, DTP, NCI, 2025)

Test system: 276233-004-R-J1-PDC complex spheroid viability
Assay: Anticancer human tumor 276233-004-R-J1-PDC patient-derived colon adenocarcinoma cell line growth inhibition [GQUAD]
Settings: for IC50: curve of first compound; for viability, T/C: stronger effect = lower value
Text: DNA G-quadruplex Stabilizer Agents in Combinations in Complex Spheroids
A high-throughput screen of multi-cell type tumor spheroids was designed to identify active combinations of DNA G-quadruplex stabilizer agents and targeted small molecules. Complex spheroids include a stromal component modeled by human endothelial cells (HUVEC) and fibroblasts modeled by human mesenchymal stem cells (MSCs). The concentration ranges selected for each drug and investigational agent were based upon clinically achievable concentrations if the clinical Cmax of the agent was known.
Compounds. The drugs and investigational agents: pidnarulex (CX-5461; NSC782164), APTO-253 (NSC789042), BRACO-19 (NSC847499), peposertib (NSC802822), ceralasertib (NSC780249), elimusertib (NSC800525), camonsertib (NSC841442), AZD-1390 (NSC803789), olaparib (NSC753686), talazoparib (NSC767125), ART-558 (NSC835418), sotorasib (NSC818433), MRTX-1133 (NSC836407), SN-38 (NSC673596), topotecan (NSC609699), etoposide (NSC141540), doxorubicin (NSC123127), gemcitabine (NSC613327), 5-fluorouracil (NSC19893), paclitaxel (NSC125973), vemurafenib (NSC761431), panobinostat (NSC761190), R-306465 (JNJ-16241199; NSC773264), adavosertib (NSC754352), TP-3654 (NSC805149), carboplatin (NSC241240), KSQ-4279 (NSC840948), and staurosporine (NSC755774) were obtained from the National Cancer Institute (NCI) Developmental Therapeutics Program Chemical Repository (34). The FDA-approved anticancer drug set is available from the NCI Developmental Therapeutics Program. […] The stock solutions were prepared in dimethyl sulfoxide (DMSO, Sigma-Aldrich, St. Louis, MO, cat. D2650) at 800-fold the tested concentration and stored at -70 degrees C prior to their use. All drugs and investigational agents were tested over a range starting from a high concentration at or near the clinical Cmax and decreasing in half-log increments. If the clinical Cmax for an agent had not been determined, the highest concentration tested was 10 microM.
2.3 Cell Culture. All cells were maintained in an incubator at 37 degrees C and 5% CO2 with 95% humidity. The PDC lines were cultured according to standard operating procedures established by the NCI PDMR. All PDCs were thawed and cultured in Matrigel-coated flasks prepared with a working solution of 1X Ham's F-12 nutrient mix, without supplementation (Invitrogen, cat. 11765054), 100 U/mL penicillin-streptomycin (Invitrogen, cat. 15140122), and 2.5% Matrigel (Corning Inc., cat. 354248) for the first three passages. The 857933-349-R-J2-PDC line was cultured in 6C/Colon 1B media, which includes advanced DMEM/F-12 (Thermo Fisher Scientific, cat. 12634028), 10 mM HEPES (Thermo Fisher Scientific, cat. 15630080), 1X GlutaMAX supplement (Thermo Fisher Scientific, cat. 35050061), 0.1 mg/mL primocin (InvivoGen, cat. ant-pm-2), 10% defined fetal bovine serum, heat inactivated (HyClone Laboratories Inc., cat. SH30070.03HI), 50% L-WRN conditioned media (ATCC, cat. CRL-3276), 1.25 mM N-Acetyl-L-cysteine (Sigma-Aldrich, cat. A9165), 10 mM nicotinamide (Sigma-Aldrich, cat. N0636), 1X B-27 supplement (Thermo Fisher Scientific, cat. 17504044), 1X N-2 supplement (Thermo Fisher Scientific, cat. 17502048), 10 microM Y-27632 dihydrochloride (Tocris Bioscience, cat. 1254), and 50 ng/mL human EGF recombinant protein (Thermo Fisher Scientific, cat. PHG0311). The 485176-168-R4-J1-PDC line was cultured in Panc media, which includes all 6C/Colon 1B media components plus 100 ng/mL human FGF-10 (Thermo Fisher Scientific, cat. 100-26), 500 nM SB-431542 (Selleckchem, cat. S1067), and gastrin (Tocris, cat. 3006).
[…]

[1] = second compound 0.0316 µM, first compound 0.0316 µM
[2] = second compound 0.0316 µM, first compound 0.1 µM
[3] = second compound 0.0316 µM, first compound 0.316 µM
[4] = second compound 0.0316 µM, first compound 1 µM
[5] = second compound 0.0316 µM, first compound 3.16 µM
[6] = second compound 0.0316 µM, first compound 10 µM
[7] = second compound 0.1 µM, first compound 0.0316 µM
[8] = second compound 0.1 µM, first compound 0.1 µM
[9] = second compound 0.1 µM, first compound 0.316 µM
[10] = second compound 0.1 µM, first compound 1 µM
[11] = second compound 0.1 µM, first compound 3.16 µM
[12] = second compound 0.1 µM, first compound 10 µM
[13] = second compound 0.316 µM, first compound 0.0316 µM
[14] = second compound 0.316 µM, first compound 0.1 µM
[15] = second compound 0.316 µM, first compound 0.316 µM
[16] = second compound 0.316 µM, first compound 1 µM
[17] = second compound 0.316 µM, first compound 3.16 µM
[18] = second compound 0.316 µM, first compound 10 µM
[19] = second compound 1 µM, first compound 0.0316 µM
[20] = second compound 1 µM, first compound 0.1 µM
[21] = second compound 1 µM, first compound 0.316 µM
[22] = second compound 1 µM, first compound 1 µM
[23] = second compound 1 µM, first compound 3.16 µM
[24] = second compound 1 µM, first compound 10 µM
[25] = second compound 3.16 µM, first compound 0.0316 µM
[26] = second compound 3.16 µM, first compound 0.1 µM
[27] = second compound 3.16 µM, first compound 0.316 µM
[28] = second compound 3.16 µM, first compound 1 µM
[29] = second compound 3.16 µM, first compound 3.16 µM
[30] = second compound 3.16 µM, first compound 10 µM
[31] = second compound 10 µM, first compound 0.0316 µM
[32] = second compound 10 µM, first compound 0.1 µM
[33] = second compound 10 µM, first compound 0.316 µM
[34] = second compound 10 µM, first compound 1 µM
[35] = second compound 10 µM, first compound 3.16 µM
[36] = second compound 10 µM, first compound 10 µM
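Further: spheroids exposed to drugs for seven days.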
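Wherever viability, T/C is given: 100% = DMSO vehicle control viability.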

CC1COCCN1c1cc(C2(O)CC3CCC(C2)O3)c2cnn(-c3ccn[nH]3)c2n1 (stereo unspecified) + CN(C)c1ccc(Nc2c3ccc(NC(=O)CCN4CCCC4)cc3nc3cc(NC(=O)CCN4CCCC4)ccc23)cc1
IC50 (second compound 0.0316 µM): 2840 nM
IC50 (second compound 0.1 µM): 2410 nM
IC50 (second compound 0.316 µM): 341 nM
IC50 (second compound 1 µM): 555 nM
IC50 (second compound 3.16 µM): 90.9 nM
IC50 (second compound 10 µM): 43.4 nM
viability, T/C [1]: 74.7%
viability, T/C [2]: 80.9%
viability, T/C [3]: 72.7%
viability, T/C [4]: 69%
viability, T/C [5]: 47.7%
viability, T/C [6]: 47.2%
viability, T/C [7]: 77.4%
viability, T/C [8]: 89.3%
viability, T/C [9]: 75%
viability, T/C [10]: 60.8%
viability, T/C [11]: 45.2%
viability, T/C [12]: 46%
viability, T/C [13]: 64.9%
viability, T/C [14]: 50.3%
viability, T/C [15]: 50.4%
viability, T/C [16]: 41.9%
viability, T/C [17]: 50.8%
viability, T/C [18]: 28.8%
viability, T/C [19]: 55.5%
viability, T/C [20]: 51.1%
viability, T/C [21]: 50.1%
viability, T/C [22]: 47.2%
viability, T/C [23]: 43.7%
viability, T/C [24]: 27.6%
viability, T/C [25]: 57.6%
viability, T/C [26]: 39.4%
viability, T/C [27]: 52.8%
viability, T/C [28]: 37.8%
viability, T/C [29]: 39.5%
viability, T/C [30]: 27.3%
viability, T/C [31]: 53.5%
viability, T/C [32]: 42.1%
viability, T/C [33]: 37.6%
viability, T/C [34]: 37.4%
viability, T/C [35]: 29.3%
viability, T/C [36]: 25.4%

CC1COCCN1c1cc(C2(S(C)(=N)=O)CC2)nc(-c2ccnc3[nH]ccc23)n1 (stereo unspecified) + CN(C)c1ccc(Nc2c3ccc(NC(=O)CCN4CCCC4)cc3nc3cc(NC(=O)CCN4CCCC4)ccc23)cc1
IC50 (second compound 0.0316 µM): > 10000 nM
IC50 (second compound 0.1 µM): > 10000 nM
IC50 (second compound 0.316 µM): 4010 nM
IC50 (second compound 1 µM): 1960 nM
IC50 (second compound 3.16 µM): 3160 nM
IC50 (second compound 10 µM): < 31.6 nM
viability, T/C [1]: 97.8%
viability, T/C [2]: 91%
viability, T/C [3]: 89.8%
viability, T/C [4]: 81.3%
viability, T/C [5]: 66.7%
viability, T/C [6]: 67.4%
viability, T/C [7]: 95.1%
viability, T/C [8]: 84.5%
viability, T/C [9]: 75.2%
viability, T/C [10]: 65.5%
viability, T/C [11]: 74.6%
viability, T/C [12]: 66.9%
viability, T/C [13]: 74.5%
viability, T/C [14]: 75.7%
viability, T/C [15]: 47.8%
viability, T/C [16]: 64%
viability, T/C [17]: 59%
viability, T/C [18]: 39.8%
viability, T/C [19]: 65.8%
viability, T/C [20]: 47.6%
viability, T/C [21]: 59.5%
viability, T/C [22]: 52.9%
viability, T/C [23]: 50.1%
viability, T/C [24]: 43.9%
viability, T/C [25]: 58.4%
viability, T/C [26]: 61.5%
viability, T/C [27]: 63.1%
viability, T/C [28]: 46.4%
viability, T/C [29]: 52.7%
viability, T/C [30]: 55.6%
viability, T/C [31]: 36.8%
viability, T/C [32]: 45.5%
viability, T/C [33]: 33.7%
viability, T/C [34]: 52.5%
viability, T/C [35]: 37.2%
viability, T/C [36]: 71.4%

COc1ccc([C@@H](O)c2cc(-c3ncnc4cc(N5CCOCC5)ccc34)c(F)cc2Cl)nn1 + CN(C)c1ccc(Nc2c3ccc(NC(=O)CCN4CCCC4)cc3nc3cc(NC(=O)CCN4CCCC4)ccc23)cc1
IC50 (second compound 0.0316 µM): > 10000 nM
IC50 (second compound 0.1 µM): 5540 nM
IC50 (second compound 0.316 µM): 612 nM
IC50 (second compound 1 µM): 3460 nM
IC50 (second compound 3.16 µM): 127 nM
IC50 (second compound 10 µM): 134 nM
viability, T/C [1]: 88.8%
viability, T/C [2]: 94.6%
viability, T/C [3]: 87.7%
viability, T/C [4]: 74.5%
viability, T/C [5]: 61%
viability, T/C [6]: 54.2%
viability, T/C [7]: 79.4%
viability, T/C [8]: 79.3%
viability, T/C [9]: 76.3%
viability, T/C [10]: 70.2%
viability, T/C [11]: 52.9%
viability, T/C [12]: 46.8%
viability, T/C [13]: 78%
viability, T/C [14]: 63.7%
viability, T/C [15]: 52%
viability, T/C [16]: 49.1%
viability, T/C [17]: 43.7%
viability, T/C [18]: 39.1%
viability, T/C [19]: 56.5%
viability, T/C [20]: 49.5%
viability, T/C [21]: 62.5%
viability, T/C [22]: 48.8%
viability, T/C [23]: 52.4%
viability, T/C [24]: 38.2%
viability, T/C [25]: 47.4%
viability, T/C [26]: 54.2%
viability, T/C [27]: 47.6%
viability, T/C [28]: 42.2%
viability, T/C [29]: 39%
viability, T/C [30]: 40.1%
viability, T/C [31]: 48.3%
viability, T/C [32]: 56.2%
viability, T/C [33]: 37.6%
viability, T/C [34]: 41.8%
viability, T/C [35]: 46.8%
viability, T/C [36]: 47.5%
